# In US9788567B2, “Ergothioneine-containing hens egg and method of preparing hens feed for producing same” (Origin Biotechnology Kabushikikaisha, priority 2013, dated 2017):
# What was measured:
# [1] = in vivo
# Experimental: (§1) Thus, 14 ml of the obtained concentrate solution containing the ergothioneine were mixed in 120 g of the feed for hen used generally, it were mixed with the mixing stirrer 4, and the feed for the laying hen 41 was obtained. The feed for the laying hen 41 of 120 g per a hen was continuously fed to the laying hen for 36 days, dividing into four times a day.
# The feeding and raising to the laying hen, and the measure of the ergothioneine content in the egg white of the egg extracted in the meantime are performed in the following ways. Numbering was carried out to ten hens, respectively, and it stored one hen in the raising gauge, and one egg (a total of ten eggs) which each hen will lay on the 1 day was extracted, numbering was carried out to each egg, and the ergothioneine content in the egg white of each egg was measured. In a fixed amount of the ergothioneine, the chromatogram of an internal standard substance and the ergothioneine are obtained from the egg white which preliminarily added the internal standard substance of the known amount by a high performance chromatography, the amount of the ergothioneine is measured from the ratio of the peak area of the ergothioneine to that of the internal standard substance.
# In the measurement of the ergothioneine content in the egg white, the feed for the hen used generally (the general feed for the hen) was fed for 5 days (minus fifth day to minus first day), the feed of the laying hen which mixed the concentrate solution containing the ergothioneine continuously was fed for 36 days (0 day to 36th day), the feed of the laying hen was stopped after that, the general feed for the hen was started, and it carried out till 71th day. […] The ergothioneine content in each egg white is measured, and the average value of the ergothioneine content in the egg white of these ten eggs is denoted by a graph.
# [2] = in vivo; remark: listed apart in the source
# Experimental: as §1
# The feeding and raising to the laying hen, and the measurement of the ergothioneine content in the egg yolk of the egg extracted in the meantime are performed in the same way as the example 2. In a fixed amount of the ergothioneine in the measurement of the ergothioneine content in the egg yolk of each egg here, the chromatogram of an internal standard substance and the ergothioneine are obtained from the egg yolk which preliminarily added the internal standard substance of the known amount by a high performance chromatography, the amount of the ergothioneine is measured from the ratio of the peak area of the ergothioneine to that of the internal standard substance.
# In FIG. 4, one egg (a total of ten eggs) which each of the ten hens will lay on the 1 day is extracted for every lapsed days which start of the feed of the general feed for the hen, start of the feed of the laying hen, start of the feed of the general feed for the hen to stop of the feed of the laying hen and continue on the 71th day. The ergothioneine content in each egg yolk is measured, and the average value of the ergothioneine content in the egg yolk of these ten eggs is denoted by a graph.
smiles,measurement,setting,value
C[N+](C)(C)[C@@H](Cc1c[nH]c(=S)[nH]1)C(=O)[O-] [ergothioneine],day on which ergothioneine content in the egg white returned to the initial value,[1],71 days
same,increase of ergothioneine content in the egg white over initial value,[1],about 12.8 times
same,start of concentration of ergothioneine to the egg white,[1],first day
same,day on which ergothioneine content in the egg yolk returned to the initial value,[2],58 days
same,increase of ergothioneine content in the egg yolk over initial value,[2],about 8.5 times
same,start of concentration of ergothioneine to the egg yolk,[2],second day
